{"source": "paper PMC7293270", "about": "(Scientific Reports, 2020)", "key": {"[1]": {"tested_on": "P-gp", "experiment": "Rho-123 transport assay (flow cytometry) for P-gp activity with RT and NF-κB inhibitor SN50", "format": "cell-based", "conditions": "Huh-7, 20 μM Rho-123", "experimental": "In brief, Huh-7 cells were seeded in a 6-well plate. RT0Gy, RT2Gy, or RT9Gy was applied. At 1 hr or 24 hr after RT, ketoconazole (a P-gp inhibitor), digoxin (a P-gp substrate) and DMSO were added to the corresponding wells and incubated at 37 °C. The existing medium was replaced with 20 μM Rho-123 solution and incubated for 1 hr. Then, the cells were analyzed (10000 cells/sample) to measure Rho-123 accumulation with a FACSCalibur flow cytometer (excitation (Ex) = 515 nm, emission (Em) = 545 nm; Becton Dickinson, San Jose, CA, USA). The data were analyzed with CellQuest software (Becton Dickinson, San Jose, CA, USA).\nThe peptide SN50 inhibits nuclear translocation of NF-κB. SN50M was used as a negative control. In brief, Huh-7 cells were pretreated with 20 μM SN50 or SN50M (Enzo Life Sciences, Inc., Farmingdale, NY, USA) for 1 hr and were then irradiated. At 1 hr or 24 hr after RT, the existing medium was replaced with 20 μM Rho-123 and incubated for 1 hr. The cells were analyzed (10000 cells/sample) to measure Rho-123 accumulation with a FACSCalibur flow cytometer (Ex = 515 nm, Em = 545 nm; Becton Dickinson, San Jose, CA, USA). The data were analyzed with CellQuest software (Becton Dickinson, San Jose, CA, USA)."}, "[2]": {"experiment": "Biliary excretion pharmacokinetics of Rho-123 after RT in freely moving rats", "format": "in vivo, Sprague-Dawley rats", "conditions": "for AUC(0-t) / Cmax / MRT / Tmax / clearance / half-life: Sprague-Dawley, rat, bile, iv, 0.2 mg/kg, biliary excretion; for half-life: read-out: t½", "experimental": "A freely moving rat model was designed for the current study[21] (Fig. 1A). Experimental rats were anesthetized with 1 g/mL urethane and 0.1 g/mL α-chloralose (1 mL/kg by intraperitoneal [i.p.] injection), and polyethylene tubes were then implanted in the right jugular vein for intravenous (i.v.) fluid administration. The right jugular vein was catheterized for blood sampling. The catheter traversed the subcutaneous tissue and was fixed in the dorsal neck region. After surgery, the rats were placed in an experimental cage and allowed to recover for 1 day. During the recovery period, the rats were kept warm under a light. Then, the rats were anesthetized and immobilized on a board while undergoing CT for localization of the whole liver (conventional technique, Fig. 1B) or a central area of 1.5 × 1.5 cm (SBRT technique, Fig. 1C). […] An equal volume of methanol was added to 100-μL aliquots of bile and plasma sample specimens for deproteinization. The mixture was vortexed for 15 s and centrifuged at 12000 × g for 10 min."}, "[3]": {"conditions": "RT2Gy, Rho-123 10 min later (concurrent)"}, "[4]": {"conditions": "RT2Gy, Rho-123 24 hr later (sequential)"}, "[5]": {"conditions": "RT9Gy, Rho-123 10 min later (concurrent)"}, "[6]": {"conditions": "RT9Gy, Rho-123 24 hr later (sequential)"}, "[7]": {"conditions": "sham RT, Rho-123 0.2 mg/kg i.v., rats"}}, "note": "Like-named read-outs stand apart in the source and are kept apart here."}
{"smiles": "COC(=O)c1ccccc1-c1c2ccc(=N)cc-2oc2cc(N)ccc12", "note": "[Rho-123, rhodamine 123]", "values": [{"measurement": "Rho-123 intensity", "setting": "[1]; concurrent RT2Gy", "result": "99.2 ± 2.2"}, {"measurement": "Rho-123 intensity", "setting": "[1]; concurrent RT9Gy", "result": "93.6 ± 3.4"}, {"measurement": "Rho-123 intensity", "setting": "[1]; sequential RT2Gy", "result": "103.8 ± 0.6"}, {"measurement": "Rho-123 intensity", "setting": "[1]; sequential RT9Gy", "result": "118.4 ± 0.9"}, {"measurement": "AUC(0-t)", "setting": "[2]; RT2Gy, Rho-123 0.2 mg/kg i.v. 10 min later (concurrent)", "result": 3170, "unit": "ng·h/mL"}, {"measurement": "AUC(0-t)", "setting": "[2]; RT2Gy, Rho-123 0.2 mg/kg i.v. 24 hr later (sequential)", "result": 1920, "unit": "ng·h/mL"}, {"measurement": "Cmax", "setting": "[2]; [3]", "result": "3560 ± 1930", "unit": "ng/mL"}, {"measurement": "MRT", "setting": "[2]; [3]", "result": 66, "unit": "min"}, {"measurement": "Tmax", "setting": "[2]; [3]", "result": 11, "unit": "min"}, {"measurement": "clearance", "setting": "[2]; [3]", "result": "0.92 ± 0.23", "unit": "mL/min/kg"}, {"measurement": "half-life", "setting": "[2]; [3]", "result": "46 ± 13", "unit": "min"}, {"measurement": "Cmax", "setting": "[2]; [4]", "result": "2240 ± 570", "unit": "ng/mL"}, {"measurement": "MRT", "setting": "[2]; [4]", "result": 47, "unit": "min"}, {"measurement": "Tmax", "setting": "[2]; [4]", "result": 9, "unit": "min"}, {"measurement": "clearance", "setting": "[2]; [4]", "result": "1.73 ± 0.61", "unit": "mL/min/kg"}, {"measurement": "half-life", "setting": "[2]; [4]", "result": "32 ± 8", "unit": "min"}, {"measurement": "AUC(0-t)", "setting": "[2]; RT9Gy, Rho-123 0.2 mg/kg i.v. 10 min later (concurrent)", "result": 2710, "unit": "ng·h/mL"}, {"measurement": "AUC(0-t)", "setting": "[2]; RT9Gy, Rho-123 0.2 mg/kg i.v. 24 hr later (sequential)", "result": 1660, "unit": "ng·h/mL"}, {"measurement": "Cmax", "setting": "[2]; [5]", "result": "2860 ± 830", "unit": "ng/mL"}, {"measurement": "MRT", "setting": "[2]; [5]", "result": 66, "unit": "min"}, {"measurement": "Tmax", "setting": "[2]; [5]", "result": 11, "unit": "min"}, {"measurement": "clearance", "setting": "[2]; [5]", "result": "1.07 ± 0.33", "unit": "mL/min/kg"}, {"measurement": "half-life", "setting": "[2]; [5]", "result": "43 ± 6", "unit": "min"}, {"measurement": "Cmax", "setting": "[2]; [6]", "result": "2070 ± 750", "unit": "ng/mL"}, {"measurement": "MRT", "setting": "[2]; [6]", "result": 50, "unit": "min"}, {"measurement": "Tmax", "setting": "[2]; [6]", "result": 13, "unit": "min"}, {"measurement": "clearance", "setting": "[2]; [6]", "result": "1.91 ± 0.56", "unit": "mL/min/kg"}, {"measurement": "half-life", "setting": "[2]; [6]", "result": "34 ± 9", "unit": "min"}, {"measurement": "AUC(0-t)", "setting": "[2]; [7]", "result": 1880, "unit": "ng·h/mL"}, {"measurement": "Cmax", "setting": "[2]; [7]", "result": "2010 ± 600", "unit": "ng/mL"}, {"measurement": "MRT", "setting": "[2]; [7]", "result": 61, "unit": "min"}, {"measurement": "Tmax", "setting": "[2]; [7]", "result": 14, "unit": "min"}, {"measurement": "clearance", "setting": "[2]; [7]", "result": "1.56 ± 0.3", "unit": "mL/min/kg"}, {"measurement": "half-life", "setting": "[2]; [7]", "result": "42 ± 13", "unit": "min"}, {"measurement": "Increase in AUC of biliary excretion", "setting": "[2]; concurrent RT2Gy compared to sham group", "result": 69.0, "unit": "%"}, {"measurement": "Increase in AUC of biliary excretion", "setting": "[2]; concurrent RT9Gy compared to sham group", "result": 44.2, "unit": "%"}, {"measurement": "Decrease in AUC of biliary excretion", "setting": "[2]; sequential RT2Gy compared to concurrent RT2Gy", "result": 39.5, "unit": "%"}, {"measurement": "Decrease in AUC of biliary excretion", "setting": "[2]; sequential RT9Gy compared to concurrent RT9Gy", "result": 38.6, "unit": "%"}]}
